Reference: US20240012010A1, “METHODS OF MONITORING ALPHA-1 ANTITRYPSIN (AAT) DEFICIENCY BY MEASURING POLYMERISED AAT” (Vertex Pharmaceuticals Incorporated, priority 2020, published 2024)

Target: T1, AAT polymer (Z variant of the human allele of AAT) (Homo sapiens, UniProt P01009, E366K/V237A)
T1 construct: At study termination, plasma was collected via cardiac puncture; from tissue; host or cells: plasma of transgenic PiZ mice (C57BL/6 background) carrying the human SERPINA1 Z gene
Experiment: Pharmacodynamic effect of Compound 2 treatment on polymer levels in a PiZ mouse model (polymer sandwich ELISA of plasma)
Format: in vivo
Conditions: male PiZ hemizygous mice
Description: Eleven week-old male PiZ mice, hemizygous for the Z variant of the human allele of AAT, were orally administered a suspension of either vehicle or Compound 2 QD at 50 and 100 mg/kg/day for 72 hours or 5, 16, 50, and 100 mg/kg/day for 28 days. At study termination, plasma was collected via cardiac puncture and liver tissue was collected and preserved in 10% neutral buffered formalin.
Liver polymer staining was assessed as the % area of liver tissue that stains positively by monoclonal antibody 2C1 immunohistochemistry.
High bind EIA/RIA microplates (Costar, 3590) were coated with 100 μL mouse monoclonal anti-human AAT polymer antibody (Hycult Biotech, HM2289, clone 2C1) diluted to 2 μg/mL in carbonate-bicarbonate buffer (0.2M, pH 9.4) and incubated for 90 minutes at 37° C. (while shaking) or alternatively overnight (up to 72 hours) at 4° C. (still). […] Following color development, 100 μL 1N sulfuric acid was added to stop the reaction and absorbance was immediately measured at 450 nm and 650 nm for background subtraction with a microplate reader (Molecular Devices, SpectraMax M3). […]

T1 sequence (P01009 25-418 V237A/E366K): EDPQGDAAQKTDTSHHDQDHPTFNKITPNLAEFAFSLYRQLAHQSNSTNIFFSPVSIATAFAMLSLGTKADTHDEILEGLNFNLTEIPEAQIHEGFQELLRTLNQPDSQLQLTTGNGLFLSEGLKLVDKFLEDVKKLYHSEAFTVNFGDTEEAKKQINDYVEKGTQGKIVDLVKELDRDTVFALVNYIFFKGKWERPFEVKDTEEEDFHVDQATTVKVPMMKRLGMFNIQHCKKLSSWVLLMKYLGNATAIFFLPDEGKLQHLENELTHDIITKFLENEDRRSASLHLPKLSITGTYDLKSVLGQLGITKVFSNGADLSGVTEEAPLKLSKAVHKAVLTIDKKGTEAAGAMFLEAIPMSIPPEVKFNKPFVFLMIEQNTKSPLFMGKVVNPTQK

Compound: O=C(O)c1ccc(-c2c(C3CCOCC3)n(-c3ccc(F)c(F)c3)c3cc4cn[nH]c4cc23)cc1 [Compound 2]
- AAT plasma polymer levels (QD 5, 16, 50 and 100 mg/kg/day PO for 28 days, vs vehicle (FIG. 5B)): dose response decrease
- AAT plasma polymer levels (QD 50 and 100 mg/kg/day PO for 72 hours, vs vehicle (FIG. 5A)): dose response decrease
